Test results published in ChEMBL document CHEMBL1201862, “PubChem BioAssay data set” (2004).
The source made the active and inactive calls. For most assays here, no stated cut-off is given here; in the data, actives have a measured EC50 and inactives only a lower limit.

What was measured:
[1] = biological target: T1, Apoptotic protease-activating factor 1 (Homo sapiens, UniProt O14727); format: functional
T1 sequence (O14727 whole entry): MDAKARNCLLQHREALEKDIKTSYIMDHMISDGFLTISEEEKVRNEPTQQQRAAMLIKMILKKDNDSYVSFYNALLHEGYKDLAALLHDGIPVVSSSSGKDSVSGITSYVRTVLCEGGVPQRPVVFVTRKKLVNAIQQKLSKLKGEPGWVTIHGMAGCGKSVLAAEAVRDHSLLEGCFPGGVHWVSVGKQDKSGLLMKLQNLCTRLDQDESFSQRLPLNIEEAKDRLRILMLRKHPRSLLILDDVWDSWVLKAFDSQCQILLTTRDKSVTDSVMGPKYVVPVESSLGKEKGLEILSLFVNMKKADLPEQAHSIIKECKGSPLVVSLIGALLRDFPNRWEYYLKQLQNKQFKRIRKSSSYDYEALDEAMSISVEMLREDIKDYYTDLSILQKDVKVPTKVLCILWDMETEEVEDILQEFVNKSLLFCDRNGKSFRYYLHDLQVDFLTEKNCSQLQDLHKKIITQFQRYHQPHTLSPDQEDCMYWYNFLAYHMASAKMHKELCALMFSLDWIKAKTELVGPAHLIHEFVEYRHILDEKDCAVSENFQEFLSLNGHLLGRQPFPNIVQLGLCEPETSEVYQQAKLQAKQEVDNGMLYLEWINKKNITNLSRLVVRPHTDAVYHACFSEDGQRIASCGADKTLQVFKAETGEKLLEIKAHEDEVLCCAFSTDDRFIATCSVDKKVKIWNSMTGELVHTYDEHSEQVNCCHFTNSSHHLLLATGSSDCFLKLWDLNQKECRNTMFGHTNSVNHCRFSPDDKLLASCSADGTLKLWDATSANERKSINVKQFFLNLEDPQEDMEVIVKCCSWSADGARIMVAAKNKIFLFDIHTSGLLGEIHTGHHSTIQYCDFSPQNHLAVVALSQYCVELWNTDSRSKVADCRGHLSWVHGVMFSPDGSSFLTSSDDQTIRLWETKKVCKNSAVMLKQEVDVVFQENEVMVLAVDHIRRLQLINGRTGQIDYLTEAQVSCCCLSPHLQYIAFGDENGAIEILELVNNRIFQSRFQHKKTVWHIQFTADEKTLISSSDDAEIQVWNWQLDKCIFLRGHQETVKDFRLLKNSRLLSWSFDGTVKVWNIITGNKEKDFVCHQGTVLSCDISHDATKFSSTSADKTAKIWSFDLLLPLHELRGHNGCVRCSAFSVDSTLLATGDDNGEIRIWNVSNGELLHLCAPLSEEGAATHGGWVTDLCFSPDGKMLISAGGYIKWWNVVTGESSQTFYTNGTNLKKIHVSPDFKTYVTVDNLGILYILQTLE

[2] = NIH-3T3 fibroblast cytotoxicity, dose response, cytotoxicity control, cell-based, fluorescence, Alamar Blue, secondary assay (AID 2327); format: functional;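 further: NIH-3T3 mouse fibroblasts cultured with fluconazole at 8 µg/mL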
[3] = fluconazole-exposed Candida albicans growth modulators – fluorescence, retest, confirmation (AID 2467); format: functional, cell-based
[4] = biological target: T2, Serine/threonine-protein phosphatase (Candida dubliniensis (strain CD36 / CBS 7987 / NCPF 3949 / NRRLY-17841) (Yeast), UniProt B9W6M3); assay: blockers of CaCl2-induced CDRE-lacZ signaling – S. cerevisiae, luminescence, secondary, dose response (AID 2388); format: functional, cell-based;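 further: yeast reporter cells carrying a calcineurin-responsive lacZ construct stimulated with calcium chloride; luminescent beta-galactosidase reporter signal in whole cells rather than isolated phosphatase activity; potency for inhibition where a drop in reporter signal means calcineurin blockade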
T2 sequence (B9W6M3 whole entry): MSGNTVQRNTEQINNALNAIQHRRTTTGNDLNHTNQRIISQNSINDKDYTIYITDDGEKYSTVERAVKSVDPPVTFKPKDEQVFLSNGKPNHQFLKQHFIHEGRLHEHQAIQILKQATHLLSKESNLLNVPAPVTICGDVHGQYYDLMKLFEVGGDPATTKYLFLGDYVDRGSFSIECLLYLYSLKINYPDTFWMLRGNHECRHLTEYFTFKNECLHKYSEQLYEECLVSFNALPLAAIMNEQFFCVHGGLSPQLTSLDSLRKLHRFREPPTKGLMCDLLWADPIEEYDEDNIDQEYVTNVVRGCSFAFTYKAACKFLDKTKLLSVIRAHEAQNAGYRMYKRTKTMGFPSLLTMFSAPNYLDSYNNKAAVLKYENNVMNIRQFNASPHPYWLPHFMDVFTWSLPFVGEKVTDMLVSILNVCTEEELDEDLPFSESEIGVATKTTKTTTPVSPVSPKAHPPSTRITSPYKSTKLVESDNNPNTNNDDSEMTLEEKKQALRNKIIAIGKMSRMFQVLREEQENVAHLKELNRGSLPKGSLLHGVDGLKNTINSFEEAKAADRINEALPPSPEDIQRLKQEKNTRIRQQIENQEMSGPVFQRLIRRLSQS

Exodeoxyribonuclease V = biological target: T3, Exodeoxyribonuclease V (Escherichia coli (strain K12), UniProt P04993+P07648+P08394); assay: RecBCD inhibition via phage-restricted bacterial growth – absorbance, V66 E. coli, mutant T4 phage, counter-screen for AddAB inhibitor project, dose response (AID 492957); format: functional, cell-based, Escherichia coli str. K-12 substr. MG1655
T3 sequence (P04993 whole entry): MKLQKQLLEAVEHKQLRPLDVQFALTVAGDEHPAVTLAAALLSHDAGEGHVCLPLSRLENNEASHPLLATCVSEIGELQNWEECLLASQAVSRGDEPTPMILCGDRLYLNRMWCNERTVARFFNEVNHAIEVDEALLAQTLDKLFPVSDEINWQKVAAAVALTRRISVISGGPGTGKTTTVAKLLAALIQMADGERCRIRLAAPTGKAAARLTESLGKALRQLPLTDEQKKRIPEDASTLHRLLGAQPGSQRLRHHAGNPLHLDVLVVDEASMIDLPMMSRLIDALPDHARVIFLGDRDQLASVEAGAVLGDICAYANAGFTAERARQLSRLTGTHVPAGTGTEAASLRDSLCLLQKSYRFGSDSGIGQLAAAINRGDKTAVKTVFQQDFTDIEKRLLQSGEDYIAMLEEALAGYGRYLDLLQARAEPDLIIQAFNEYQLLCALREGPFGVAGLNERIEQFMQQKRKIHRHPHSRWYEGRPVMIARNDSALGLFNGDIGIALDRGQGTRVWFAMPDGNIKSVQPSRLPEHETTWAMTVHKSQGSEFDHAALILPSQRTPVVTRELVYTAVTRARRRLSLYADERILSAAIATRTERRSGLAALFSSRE
T3 sequence (P07648 whole entry): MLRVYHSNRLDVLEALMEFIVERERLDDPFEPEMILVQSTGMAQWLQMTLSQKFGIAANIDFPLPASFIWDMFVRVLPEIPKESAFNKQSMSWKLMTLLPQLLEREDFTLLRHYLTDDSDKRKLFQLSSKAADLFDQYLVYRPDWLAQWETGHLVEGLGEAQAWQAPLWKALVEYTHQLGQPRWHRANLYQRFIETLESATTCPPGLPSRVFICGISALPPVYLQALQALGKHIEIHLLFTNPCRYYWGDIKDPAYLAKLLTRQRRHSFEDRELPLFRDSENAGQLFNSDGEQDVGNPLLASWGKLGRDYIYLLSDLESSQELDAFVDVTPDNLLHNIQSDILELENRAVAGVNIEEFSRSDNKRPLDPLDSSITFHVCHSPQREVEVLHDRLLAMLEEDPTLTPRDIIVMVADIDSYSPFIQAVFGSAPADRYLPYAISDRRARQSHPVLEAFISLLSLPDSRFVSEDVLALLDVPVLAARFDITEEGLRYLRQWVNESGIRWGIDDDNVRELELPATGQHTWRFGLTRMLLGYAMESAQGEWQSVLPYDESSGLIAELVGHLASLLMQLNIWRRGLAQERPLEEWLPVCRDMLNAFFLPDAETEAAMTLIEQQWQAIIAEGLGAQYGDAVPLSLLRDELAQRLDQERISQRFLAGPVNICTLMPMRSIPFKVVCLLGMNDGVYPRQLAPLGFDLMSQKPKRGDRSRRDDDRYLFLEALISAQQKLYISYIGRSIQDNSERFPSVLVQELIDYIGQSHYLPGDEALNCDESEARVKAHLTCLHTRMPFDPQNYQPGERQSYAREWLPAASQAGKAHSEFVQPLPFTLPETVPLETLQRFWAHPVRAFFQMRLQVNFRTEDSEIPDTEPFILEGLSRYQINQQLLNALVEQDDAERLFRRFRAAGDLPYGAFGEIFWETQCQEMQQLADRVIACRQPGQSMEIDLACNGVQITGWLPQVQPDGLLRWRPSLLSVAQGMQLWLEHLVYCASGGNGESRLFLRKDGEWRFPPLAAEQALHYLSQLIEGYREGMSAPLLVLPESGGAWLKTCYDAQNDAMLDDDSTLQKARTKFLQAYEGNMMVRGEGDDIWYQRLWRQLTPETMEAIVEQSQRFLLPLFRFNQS
T3 sequence (P08394 whole entry): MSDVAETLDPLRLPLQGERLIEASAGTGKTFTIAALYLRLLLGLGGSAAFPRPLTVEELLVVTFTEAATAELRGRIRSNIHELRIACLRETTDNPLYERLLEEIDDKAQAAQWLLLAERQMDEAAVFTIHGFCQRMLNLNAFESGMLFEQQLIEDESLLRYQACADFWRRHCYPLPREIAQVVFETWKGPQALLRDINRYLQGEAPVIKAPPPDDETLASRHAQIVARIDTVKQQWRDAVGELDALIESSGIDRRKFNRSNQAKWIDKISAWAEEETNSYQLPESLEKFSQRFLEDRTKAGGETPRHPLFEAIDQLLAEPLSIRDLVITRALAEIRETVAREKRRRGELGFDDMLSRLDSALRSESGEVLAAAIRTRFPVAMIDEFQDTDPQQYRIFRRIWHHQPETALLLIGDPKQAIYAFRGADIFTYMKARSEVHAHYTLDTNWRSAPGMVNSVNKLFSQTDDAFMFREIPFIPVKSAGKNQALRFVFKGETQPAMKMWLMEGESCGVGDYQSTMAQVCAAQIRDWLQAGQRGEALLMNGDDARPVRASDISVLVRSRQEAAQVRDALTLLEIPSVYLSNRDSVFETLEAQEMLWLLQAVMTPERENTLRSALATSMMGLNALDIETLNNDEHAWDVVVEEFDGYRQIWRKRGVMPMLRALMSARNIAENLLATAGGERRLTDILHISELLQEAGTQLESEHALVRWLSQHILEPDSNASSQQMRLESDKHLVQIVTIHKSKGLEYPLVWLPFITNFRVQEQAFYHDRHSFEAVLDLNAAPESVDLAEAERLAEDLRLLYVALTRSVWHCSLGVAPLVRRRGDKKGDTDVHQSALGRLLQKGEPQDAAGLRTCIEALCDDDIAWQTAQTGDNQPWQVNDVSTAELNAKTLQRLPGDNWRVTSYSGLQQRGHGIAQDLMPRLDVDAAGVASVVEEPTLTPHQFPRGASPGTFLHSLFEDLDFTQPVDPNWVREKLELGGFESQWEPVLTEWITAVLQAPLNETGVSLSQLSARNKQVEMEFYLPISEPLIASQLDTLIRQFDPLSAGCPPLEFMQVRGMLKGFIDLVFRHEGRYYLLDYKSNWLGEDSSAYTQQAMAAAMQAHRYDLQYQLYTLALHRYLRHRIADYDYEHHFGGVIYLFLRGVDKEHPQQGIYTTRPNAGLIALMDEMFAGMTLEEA

[5] = Counterscreen for AddAB inhibitors: absorbance-based bacterial cell-based high throughput dose response assay for inhibitors of bacterial viability. [Related pubchem assays (depositor defined):AID435030, AID449728, AID449731, AID488942, AID488955, AID488956]; format: functional
[6] = biological target: ATP-dependent molecular chaperone HSP82 (Candida albicans (strain WO-1) (Yeast), UniProt C4YTQ8); assay: steroid-induced GRE reporter decrease in yeast – S. cerevisiae, luminescence, Hsp90 inhibitor project, dose response (AID 2400); format: functional, cell-based;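 further: beta-galactosidase luminescence from glucocorticoid response element reporter as proxy for Hsp90 function; inhibitor potency where signal loss means Hsp90 inhibition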
ATP-dependent molecular chaperone HSP82, sequence (C4YTQ8 whole entry): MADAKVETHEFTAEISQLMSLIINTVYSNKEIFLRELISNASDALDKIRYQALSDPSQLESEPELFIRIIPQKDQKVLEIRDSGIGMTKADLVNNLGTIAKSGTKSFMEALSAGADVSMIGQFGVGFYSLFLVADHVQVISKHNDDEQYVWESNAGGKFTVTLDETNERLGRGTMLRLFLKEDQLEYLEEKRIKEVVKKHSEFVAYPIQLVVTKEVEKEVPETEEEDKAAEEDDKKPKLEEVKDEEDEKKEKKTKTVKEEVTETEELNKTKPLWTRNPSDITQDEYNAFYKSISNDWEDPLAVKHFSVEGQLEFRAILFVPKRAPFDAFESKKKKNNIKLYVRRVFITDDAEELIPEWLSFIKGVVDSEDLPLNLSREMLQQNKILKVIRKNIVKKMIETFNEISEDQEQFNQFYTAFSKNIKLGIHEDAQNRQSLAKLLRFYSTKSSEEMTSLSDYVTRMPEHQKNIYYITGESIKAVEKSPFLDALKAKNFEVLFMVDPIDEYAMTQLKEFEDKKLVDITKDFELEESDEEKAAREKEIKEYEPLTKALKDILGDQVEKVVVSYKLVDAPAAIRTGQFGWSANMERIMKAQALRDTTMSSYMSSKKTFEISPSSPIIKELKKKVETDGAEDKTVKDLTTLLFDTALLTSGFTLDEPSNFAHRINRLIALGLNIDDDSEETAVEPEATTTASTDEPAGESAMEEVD

In the case of `COc1ccc(CC(=O)N(Cc2ccccc2)c2ccc(C)cc2)cc1S(=O)(=O)N1CCOCC1`, the IC50 [1] is reported as 43.7 µM (active).

With `CC(=O)NC1CCCN(O)C(=O)/C=C(\C)CCOC(=O)C(NC(C)=O)CCCN(O)C(=O)/C=C(\C)CCOC(=O)C(NC(C)=O)CCCN(O)C(=O)/C=C(\C)CCOC1=O` (configuration not stated) the EC50 [2] was > 160 µM (inactive), the EC50 [3] was 0.742 µM (active) and the EC50 [4] was > 180 µM (inactive). For the same molecule, the IC50 (Exodeoxyribonuclease V) was > 119 µM (inactive), the IC50 [5] was > 119 µM (inactive) and the EC50 [6] was > 160 µM (inactive).
